In patent US8901313B2, “6,5-heterocyclic propargylic alcohol compounds and uses therefor” (Genentech, Inc., priority 2011, dated 2014):

Experiments:
[1] = biological target: T1, nuclear factor-kappa B (NF-kB)-inducing kinase (NIK) (Homo sapiens, UniProt Q99558); assay: NIK Enzyme Inhibition Assay (Transcreener ADP assay); format: biochemical; conditions: purified NIK 0.2-1 nM, 10 uM ATP, fluorescence polarization, Morrison's quadratic equation; read-out: inhibitory value (Ki) for NIK
T1 construct: made in house; host or cells: baculovirus-infected insect cells
T1 sequence (Q99558 whole entry): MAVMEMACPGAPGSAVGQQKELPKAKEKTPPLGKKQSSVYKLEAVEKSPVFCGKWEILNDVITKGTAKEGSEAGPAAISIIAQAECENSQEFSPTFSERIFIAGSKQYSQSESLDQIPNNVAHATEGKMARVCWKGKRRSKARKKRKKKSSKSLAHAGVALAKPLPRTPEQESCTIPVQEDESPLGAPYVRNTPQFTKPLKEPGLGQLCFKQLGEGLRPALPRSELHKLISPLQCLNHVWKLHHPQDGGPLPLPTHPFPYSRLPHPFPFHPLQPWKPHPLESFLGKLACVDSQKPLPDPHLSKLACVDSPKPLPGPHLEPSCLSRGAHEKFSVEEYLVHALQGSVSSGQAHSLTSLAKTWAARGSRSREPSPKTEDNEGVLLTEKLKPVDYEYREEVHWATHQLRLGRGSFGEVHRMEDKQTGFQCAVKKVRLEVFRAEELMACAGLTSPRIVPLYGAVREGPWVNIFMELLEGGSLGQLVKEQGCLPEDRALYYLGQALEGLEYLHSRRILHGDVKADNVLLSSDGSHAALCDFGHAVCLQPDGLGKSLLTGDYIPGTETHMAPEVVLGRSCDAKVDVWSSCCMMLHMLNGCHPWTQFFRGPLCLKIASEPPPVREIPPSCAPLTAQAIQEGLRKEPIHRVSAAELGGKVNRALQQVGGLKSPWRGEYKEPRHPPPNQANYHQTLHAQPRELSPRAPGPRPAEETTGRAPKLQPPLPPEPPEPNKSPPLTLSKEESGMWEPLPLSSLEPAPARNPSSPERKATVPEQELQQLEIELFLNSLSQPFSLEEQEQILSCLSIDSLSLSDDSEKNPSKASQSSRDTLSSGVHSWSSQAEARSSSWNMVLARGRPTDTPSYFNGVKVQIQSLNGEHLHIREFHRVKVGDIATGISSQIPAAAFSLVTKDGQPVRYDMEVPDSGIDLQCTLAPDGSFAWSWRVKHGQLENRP

[2] = system: NF-kB signaling through NIK in human embryonic kidney 293 cells; assay: 293-NIK NF-kB-Luciferase reporter assay; format: cell-based; conditions: HEK293, 293 cells with tetracycline-inducible NIK, 1 ug/mL doxycycline, 24 hours, read-out: inhibitory value (IC50) for 293-NIK NF-kB-Luciferase activity
Excerpt: (1) The first assay was used to profile whether a test compound can inhibit the NF-kB signally through NIK inhibition without affecting cell viability. In this assay, human embryonic kidney 293 cells was stably transfected with a tetracycline-inducible NIK DNA construct containing a cytomegalovirus promoter plus two reporter DNA constructs. One reporter encoded firefly luciferase under the control of three repeats of an NF-kB response element from the ELAM-1 gene and reflects the level of NIK activity in the cells, whereas the other reporter constitutively expressed Renilla luciferase under the control of the herpes simplex virus thymidine kinase promoter and served as a general measure of cell viability. Cells were incubated with different concentrations of compounds (0.2% DMSO final) in medium containing 1 ug/mL doxycycline and 10% tet-system approved fetal bovine serum (Clontech) for 24 hours, after which the reporters' signals were detected using the Dual Glo luciferase detection system (Promega) according to the vendor's protocol. The compounds listed in Table 1 have the corresponding inhibitory value (IC50 in micromolar) for 293-NIK NF-kB-Luciferase activity (values for compounds are presented in the same order as found in Table 1): na, 0.059, na, na, na, 0.105, 0.027, na, 20, 1.2, na, 1.8, 0.0231, 0.879, 0.0361, 0.582, na, 0.142, na, 0.403, 0.059, 0.0331, na, na, 0.0573, 1.5, na, na, 0.0722, na, na, 0.589, 12.7, 3.7, 14.9, na, 0.707, 1, 0.0311, 0.332, 0.309, 0.0142, 0.051, 2.8, 0.129, na, na, 1.5, na, na, na, 1.3, 0.062, 20, 0.31, 0.104, 0.091, 0.037, 0.085, 0.279, na, 0.305, 0.064, 0.332, 0.133, 0.168, 0.217, 0.553, na and na.

[3] = system: p52 (NF-kB2) nuclear translocation in HeLa cells; assay: NIK p52 Translocation Assay (non-classical NF-kB signaling); format: cell-based; conditions: Homo sapiens; HeLa cells, 100 ng/mL anti-lymphotoxin beta receptor antibody, 5 hours; read-out: inhibitory value (IC50) for NIK p52 Translocation Assay
Experimental: (2) A second set of cell assay was used to define the selectivity of NIK inhibitors toward inhibition of classical vs. non-classical NF-kB signaling and rely on quantification of the nuclear translocation of p52 (NF-kB2) and REL-A (p65) using high content cellular imaging. For the p52 (non-classical NF-kB signaling) nuclear translocation assay, HeLa cells were treated with different concentrations of compounds (0.2% DMSO final) in medium containing 10% fetal bovine serum and then stimulated with 100 ng/mL of an anti-lymphotoxin beta receptor antibody (R&D Systems) for 5 hours. In the REL-A nuclear translocation assay, HeLa cells were incubated with compounds (0.2% DMSO final) for 4.5 hours in medium containing 10% fetal bovine serum before stimulating them with 10 ng/mL tumor necrosis factor (TNF)-α (R&D Systems) for 30 minutes. Cells were fixed with 4% paraformaldehyde, permeabilized by adding 0.1% Triton X-100 in phosphate buffered saline, and then incubated with either 2 ug/mL anti-p52 antibody (Millipore) or 400 ng/mL anti-REL-A (p65) antibody (Santa Cruz Biotechnology). Finally, the cells were incubated with an Alexa488-labeled secondary antibody (Invitrogen) and DRAQ5 DNA stain (Biostatus). Imaging was carried out using an Opera reader (Perkin Elmer) and data are analyzed with the aid of Acapella software (Perkin Elmer). The p52 or REL-A translocation into the nucleus was quantified by the ratio of the nuclear to cytoplasmic signal intensity. The concentration of inhibitor required for 50% inhibition (IC50 values) in these cell assays were derived from the plots of signal vs. inhibitor concentration. The compounds in listed in Table 1 have the corresponding inhibitory value (IC50 in micromolar) for NIK p52 Translocation Assay (values for compounds are presented in the same order as found in Table 1, and “na” means the data for this assay is to be determined): 0.326, 0.33, na, na, na, 0.218, 0.07, na, na, na, 0.129, 7.6, 0.077, 3.4, na, 0.518, na, 0.059, 0.514, 0.127, na, na, 0.010, na, na, 0.313, 0.275, na, 0.0727, na, na, na, na, na, na, 0.194, na, 6.4, 0.22, 0.346, na, na, na and na, na, na, na, na, na, 0.447, na, 0.089, 0.479, 0.489, 0.243, 0.747, 1, na, 1.9, 0.552, 2.1, na. na, na, na, na and na.

Compound	Ki [1] [nM]	IC50 [2] [nM]	IC50 [3] [nM]
N#Cc1ccc2cnn(-c3nc(N)ncc3N)c2c1 [Example T1-9, 1-(2,5-diaminopyrimidin-4-yl)-1H-indazole-6-carbonitrile]	45.9	20000	
CC1(C(=O)Nc2cnc(N)nc2-n2ncc3ccc(C#N)cc32)COC1 [Example T1-11, N-(2-amino-4-(6-cyano-1H-indazol-1-yl)pyrimidin-5-yl)-3-methyloxetane-3-carboxamide]	559		129
Cc1nc2ccc(C#CC(C)(O)c3nccs3)cc2n1-c1ccnc(N)n1 (stereo not drawn) [Example T1-12, 4-(1-(2-aminopyrimidin-4-yl)-2-methyl-1H-benzo[d]imidazol-6-yl)-2-(thiazol-2-yl)but-3-yn-2-ol]	9.3	1800	7600
CC(O)(C#Cc1ccc2cnn(-c3ccnc(N)n3)c2c1)C(F)F (stereo not drawn) [Example T1-19, 4-(1-(2-aminopyrimidin-4-yl)-1H-indazol-6-yl)-1,1-difluoro-2-methylbut-3-yn-2-ol]	190		514
COc1ncccc1Nc1ncnc(-n2ncc3ccc(C#N)cc32)n1 [Example T1-23, 1-(4-(2-methoxypyridin-3-ylamino)-1,3,5-triazin-2-yl)-1H-indazole-6-carbonitrile]	> 5000		10
CC(O)(C#Cc1ccc2ncn(-c3ccnc(N)n3)c2c1)C(F)F (stereo not drawn) [Example T1-26, 4-(1-(2-aminopyrimidin-4-yl)-1H-benzo[d]imidazol-6-yl)-1,1-difluoro-2-methylbut-3-yn-2-ol]	61	1500	313
CC(O)(C#Cc1ccc2ncn(-c3ccnc(N)n3)c2c1)C(F)(F)F (stereo not drawn) [Example T1-27, 4-(1-(2-aminopyrimidin-4-yl)-1H-benzo[d]imidazol-6-yl)-1,1,1-trifluoro-2-methylbut-3-yn-2-ol]	570		275
CC(O)(C#Cc1ccc2ncn(-c3ccnc(N)n3)c2c1)c1cn[nH]c1 (stereo not drawn) [Example T1-33, 4-(1-(2-aminopyrimidin-4-yl)-1H-benzo[d]imidazol-6-yl)-2-(1H-pyrazol-4-yl)but-3-yn-2-ol]	23	12700	
CC(O)(C#Cc1ccc2ncn(-c3ccnc(N)n3)c2c1)C1CC1 (stereo not drawn) [Example T1-34, 4-(1-(2-aminopyrimidin-4-yl)-1H-benzo[d]imidazol-6-yl)-2-cyclopropylbut-3-yn-2-ol]	92.1	3700	
CC(O)(C#Cc1ccc2cnn(-c3ccnc(N)n3)c2c1)c1cn[nH]c1 (stereo not drawn) [Example T1-35, 4-(1-(2-aminopyrimidin-4-yl)-1H-indazol-6-yl)-2-(1H-pyrazol-4-yl)but-3-yn-2-ol]	18	14900	
CC(C)(O)C#Cc1ccc2cnn(-c3cc(N)ncn3)c2c1 [Example T1-36, 4-(1-(6-aminopyrimidin-4-yl)-1H-indazol-6-yl)-2-methylbut-3-yn-2-ol]	850		194
CC(O)(C#Cc1ccc2ncn(-c3ccnc(N)n3)c2c1)CF (stereo not drawn) [Example T1-37, 4-(1-(2-aminopyrimidin-4-yl)-1H-benzo[d]imidazol-6-yl)-1-fluoro-2-methylbut-3-yn-2-ol]	2.3	707	
CCOc1nc2ccc(C#CC(C)(C)O)cc2n1-c1ccnc(N)n1 [Example T1-38, 4-(1-(2-aminopyrimidin-4-yl)-2-ethoxy-1H-benzo[d]imidazol-6-yl)-2-methylbut-3-yn-2-ol]	16	1000	6400
CC(C)(O)C#Cc1cc2c(cc1F)ncn2-c1ccnc(N)n1 [Example T1-40, 4-(1-(2-aminopyrimidin-4-yl)-5-fluoro-1H-benzo[d]imidazol-6-yl)-2-methylbut-3-yn-2-ol]	3	332	346
CC(O)(C#Cc1ccc2ncn(-c3nccc(N)n3)c2c1)c1nccs1 (stereo not drawn) [Example T1-50, 4-(1-(4-aminopyrimidin-2-yl)-1H-benzo[d]imidazol-6-yl)-2-(thiazol-2-yl)but-3-yn-2-ol]	152		447
Cc1nonc1C(C)(O)C#Cc1ccc2c(C)nn(-c3ccnc(N)n3)c2c1 (stereo not drawn) [Example T1-61, 4-(1-(2-aminopyrimidin-4-yl)-3-methyl-1H-indazol-6-yl)-2-(4-methyl-1,2,5-oxadiazol-3-yl)but-3-yn-2-ol]	383		2100
CC(O)(C#Cc1ccc2c(C(=O)N3CCCC(O)C3)nn(-c3ccnc(N)n3)c2c1)c1ncccn1 (stereo not drawn) [Example T1.1-145, [1-(2-aminopyrimidin-4-yl)-6-(3-hydroxy-3-pyrimidin-2-yl-but-1-ynyl)indazol-3-yl]-(3-hydroxy-1-piperidyl)methanone]	11		
CC(O)(C#Cc1ccc2c(C(=O)N3CC(O)C3)nn(-c3ccnc(N)n3)c2c1)c1ncccn1 (stereo not drawn) [Example T1.1-146, [1-(2-aminopyrimidin-4-yl)-6-(3-hydroxy-3-pyrimidin-2-yl-but-1-ynyl)indazol-3-yl]-(3-hydroxyazetidin-1-yl)methanone]	3400		
CC(O)(C#Cc1ccc2c(C(=O)N3CC(C#N)C3)nn(-c3ccnc(N)n3)c2c1)c1ncccn1 (stereo not drawn) [Example T1.1-147, 1-[1-(2-aminopyrimidin-4-yl)-6-(3-hydroxy-3-pyrimidin-2-yl-but-1-ynyl)indazole-3-carbonyl]azetidine-3-carbonitrile]	4		
CC(O)(C#Cc1ccc2c(C(=O)NC3COC3)nn(-c3ccnc(N)n3)c2c1)c1ncccn1 (stereo not drawn) [Example T1.1-148, 1-(2-aminopyrimidin-4-yl)-6-(3-hydroxy-3-pyrimidin-2-yl-but-1-ynyl)-N-(oxetan-3-yl)indazole-3-carboxamide]	0.1		
CC(O)(C#Cc1ccc2c(C(=O)N3CCOCC3)nn(-c3ccnc(N)n3)c2c1)c1ncccn1 (stereo not drawn) [Example T1.1-149, [1-(2-aminopyrimidin-4-yl)-6-(3-hydroxy-3-pyrimidin-2-yl-but-1-ynyl)indazol-3-yl]-morpholino-methanone]	0.3		
CC(O)(C#Cc1ccc2c(C(=O)NCC#N)nn(-c3ccnc(N)n3)c2c1)c1ncccn1 (stereo not drawn) [Example T1.134, 1-(2-aminopyrimidin-4-yl)-N-(cyanomethyl)-6-(3-hydroxy-3-pyrimidin-2-yl-but-1-ynyl) indazole-3-carboxamide]	2		
